Experiment: Melting point of PHC compositions by differential scanning calorimeter
Assay type: physicochemical
Details: DSC7000X, approx. 2 mg, nitrogen atmosphere, from 25° C. at 5° C./min
Description: PHCs in a mixing ratio shown in Table 2 were mixed in a mortar, to prepare each sample.
Each sample in an amount of approximately 2 mg was heated under a nitrogen atmosphere using a differential scanning calorimeter DSC7000X (Hitachi High-Tech Science Corporation) with the temperature raised from 25° C. at a rate of 5° C./min. The temperature at the intersection of the base line and the inflection point of endothermic peak was taken as the melting point of the sample.

SMILES | Melting point [°C]
CCCCCCCCCCCCCCCCCC(=O)NC(CO)C(O)C(O)CCCCCCCCCCCCCCCC (stereo not drawn) [Sample 13, C18:0-PHS20:0] | 126.2
CCCCCCCCCCCCCCCCCC(=O)NC(CO)C(O)C(O)CCCCCCCCCCCCCC (stereo not drawn) [Sample 12, C18:0-PHS18:0] | 124.2
CCCCCCCCCCCCCCCCCC(=O)NC(CO)C(O)C(O)CCCCCCCCCCCC (stereo not drawn) [Sample 11, C18:0-PHS16:0] | 122.0

Reference: patent US20230355501A1, “COSMETIC COMPOSITION” (AJINOMOTO CO., INC., priority 2021, published 2023)
